Legend:
Experiment in all cases: Photodynamic inactivation of bacterial cell suspensions (CFU count after 532 nm laser irradiation)
Format in all cases: cell-based
[1] = system: Pseudomonas aeruginosa DSM 1117 (ATCC 27853); conditions: in presence of blood serum or plasma in the treatment suspensions, 10 μM, 100 μM, 1 mM, 30 min dark incubation, about 100 J/cm^2
Method: (§1) The organisms used in our studies were three members of the microflora of wounds: Staphylococcus aureus DSM1104 (A TCC 25923), Gram-positive; Escherichia coli DSM 8698, Gram-negative; Pseudomonas aeruginosa DSM 1117 (ATCC 27853), Gram-negative. All strains were grown aerobically overnight at 37° C. in Tryptic Soy Broth (Merck KGaA Darmstadt, Germany). Cells were harvested by centrifugation and resuspended in sterile phosphate-buffered saline (PBS) or sterile PBS supplemented with 10% sterile horse blood serum (Oxoid), 10% human plasma or 10% human blood (both freshly obtained from donors), respectively. The final OD (Optical Density) at 600 nm, 1 cm in all cases was 0.03.
(§2) Aliquots (190 μl) of the bacterial suspensions were placed into sterile black 96 well plates with clear bottom (Costar® 3603, Corning Inc., USA). 10 μl of three different Safranin O stock solutions were added to obtain the final photosensitizer concentrations of 10 μM, 100 μM and 1 mM, respectively. The plates were incubated for 30 minutes in the dark at room temperature.
(§3) After incubation the samples were exposed to light from a laser Ceralas G2 (biolitec AG, Germany), 532 nm, power set to 0.5 W, irradiation time of […] via a light fiber from the bottom of the plate. The fluence rate for these settings was about 1.2 W/cm^2 (measured with Optometer P-9710, Gigahertz-Optik GmbH, Puchheim, Germany). With the irradiation time, the resulting energy fluence was about 100 J/cm^2.
(§4) Control wells contained no Safranin O and were not exposed to laser light. The control samples for dark toxicity were only exposed to Safranin O (end concentration of 1 mM) without any illumination.
(§5) After illumination the samples were removed from the wells of the plate, diluted with Tryptic Soy Broth and plated by using spiral plater Eddy Jet (iul Instruments, Barcelona, Spain) on Tryptic Soy agar plates. The numbers of colony-forming units (CFU/ml) were enumerated after adequate incubation by using colony counter Countermat Flash (iul Instruments, Barcelona, Spain).

[2] = system: Escherichia coli DSM 8698; conditions: in presence of blood serum or plasma in the treatment suspensions, 10 μM, 100 μM, 1 mM, 30 min dark incubation, about 100 J/cm^2
Method: as §1, §2, §3, §4, §5

[3] = system: Staphylococcus aureus DSM1104 (ATCC 25923); conditions: cell suspensions in PBS and in PBS+10% horse blood serum, PBS+10% human plasma, 10 μM, 100 μM, 1 mM, 30 min dark incubation, about 100 J/cm^2
Method: as §1, §2, §3, §4, §5

Cc1cc2nc3cc(C)c(N)cc3[n+](-c3ccccc3)c2cc1N.[Cl-] [Safranin O]
killing of cell suspensions by PDT treatment [1]: sufficient killing
killing of cell suspensions by PDT treatment [2]: sufficient killing
killing effect by PDT treatment [3]: very good killing effect

— patent publication US20050049228A1, “Antimicrobial photodynamic therapy compound and method of use” (CeramOptec Industries Inc., priority 2003, published 2005)
